Laboratory results published in patent US20070049564A1 (Wyeth, priority 2005, published 2007).
≈ marks a conversion by molar mass, not a printed value. Read-outs that look alike come from different tables or passages of the source.

Experiments:
E. faecalis GC 4555 = test: MIC, broth microdilution; details: Enterococcus faecalis
S. pneumoniae+ GC 4465 = test: MIC, broth microdilution; details: Streptococcus pneumoniae
E. coli GC 2236 = test: MIC, broth microdilution; details: Escherichia coli
S. agalactiae GC 4564 = test: MIC, broth microdilution; details: Streptococcus agalactiae
S. aureus GC 6466 = test: MIC, broth microdilution; details: Staphylococcus aureus
E. coli GC 2235 = test: MIC, broth microdilution; details: Escherichia coli
S. aureus GC 2216 = test: MIC, broth microdilution; details: Staphylococcus aureus
E. faecium GC 4556 = test: MIC, broth microdilution; details: Enterococcus faecium
S. aureus GC 4536 = test: MIC, broth microdilution; details: Staphylococcus aureus
E. coli GC 2231 = test: MIC, broth microdilution; details: Escherichia coli
E. coli GC 2234 = test: MIC, broth microdilution; details: Escherichia coli
S. pneumoniae* GC 4465 = test: MIC, broth microdilution; details: Streptococcus pneumoniae
E. faecalis GC 2242 = test: MIC, broth microdilution; details: Enterococcus faecalis
Staph. = test: Range of MIC for Staph. strains, including MRSA; details: Staphylococcus aureus
S. pyogenes GC 4563 = test: MIC, broth microdilution; details: Streptococcus pyogenes
S. typhimurium GC 2172 = test: MIC, broth microdilution; details: Salmonella enterica, TYPHIMURIUM
E. coli GC 4559 = test: MIC, broth microdilution; details: Escherichia coli
E. coli GC 2232 = test: MIC, broth microdilution; details: Escherichia coli
[1] = read-out: MINIMAL INHIBITORY CONCENTRATION MIC, Human Serum
[2] = read-out: MINIMAL INHIBITORY CONCENTRATION MIC, Mouse Serum
[3] = read-out: MINIMAL INHIBITORY CONCENTRATION MIC, Water

MIC (E. faecalis GC 4555; GC4555, read-out: MINIMAL INHIBITORY CONCENTRATION MIC, Human Serum): 2 µg/mL (≈ 3.11 µM)
MIC (E. faecalis GC 4555; GC4555, read-out: MINIMAL INHIBITORY CONCENTRATION MIC, Mouse Serum): 4 µg/mL (≈ 6.21 µM)
MIC (E. faecalis GC 4555; GC4555, read-out: MINIMAL INHIBITORY CONCENTRATION MIC, Water): 4 µg/mL (≈ 6.21 µM)
MIC (S. pneumoniae+ GC 4465; [1]): 2 µg/mL (≈ 3.11 µM)
MIC (S. pneumoniae+ GC 4465; [2]): 4 µg/mL (≈ 6.21 µM)
MIC (S. pneumoniae+ GC 4465; [3]): 4 µg/mL (≈ 6.21 µM)
MIC (E. coli GC 2236; GC2236, read-out: MINIMAL INHIBITORY CONCENTRATION MIC, Human Serum): > 64 µg/mL
MIC (E. coli GC 2236; GC2236, read-out: MINIMAL INHIBITORY CONCENTRATION MIC, Mouse Serum): > 64 µg/mL
MIC (E. coli GC 2236; GC2236, read-out: MINIMAL INHIBITORY CONCENTRATION MIC, Water): > 64 µg/mL
MIC (S. agalactiae GC 4564; GC4564, read-out: MINIMAL INHIBITORY CONCENTRATION MIC, Human Serum): 4 µg/mL (≈ 6.21 µM)
MIC (S. agalactiae GC 4564; GC4564, read-out: MINIMAL INHIBITORY CONCENTRATION MIC, Mouse Serum): 4 µg/mL (≈ 6.21 µM)
MIC (S. agalactiae GC 4564; GC4564, read-out: MINIMAL INHIBITORY CONCENTRATION MIC, Water): 4 µg/mL (≈ 6.21 µM)
MIC (S. aureus GC 6466; GC6466, read-out: MINIMAL INHIBITORY CONCENTRATION MIC, Human Serum): 4 µg/mL (≈ 6.21 µM)
MIC (S. aureus GC 6466; GC6466, read-out: MINIMAL INHIBITORY CONCENTRATION MIC, Mouse Serum): 4 µg/mL (≈ 6.21 µM)
MIC (S. aureus GC 6466; GC6466, read-out: MINIMAL INHIBITORY CONCENTRATION MIC, Water): 8 µg/mL (≈ 12.4 µM)
MIC (E. coli GC 2235; GC2235, read-out: MINIMAL INHIBITORY CONCENTRATION MIC, Human Serum): 64 µg/mL (≈ 99.4 µM)
MIC (E. coli GC 2235; GC2235, read-out: MINIMAL INHIBITORY CONCENTRATION MIC, Mouse Serum): 64 µg/mL (≈ 99.4 µM)
MIC (E. coli GC 2235; GC2235, read-out: MINIMAL INHIBITORY CONCENTRATION MIC, Water): > 64 µg/mL
MIC (S. aureus GC 2216; GC2216, read-out: MINIMAL INHIBITORY CONCENTRATION MIC, Human Serum): 2 µg/mL (≈ 3.11 µM)
MIC (S. aureus GC 2216; GC2216, read-out: MINIMAL INHIBITORY CONCENTRATION MIC, Mouse Serum): 2 µg/mL (≈ 3.11 µM)
MIC (S. aureus GC 2216; GC2216, read-out: MINIMAL INHIBITORY CONCENTRATION MIC, Water): 4 µg/mL (≈ 6.21 µM)
MIC (E. faecium GC 4556; GC4556, read-out: MINIMAL INHIBITORY CONCENTRATION MIC, Human Serum): 4 µg/mL (≈ 6.21 µM)
MIC (E. faecium GC 4556; GC4556, read-out: MINIMAL INHIBITORY CONCENTRATION MIC, Mouse Serum): 4 µg/mL (≈ 6.21 µM)
MIC (E. faecium GC 4556; GC4556, read-out: MINIMAL INHIBITORY CONCENTRATION MIC, Water): 4 µg/mL (≈ 6.21 µM)
MIC (S. aureus GC 4536; GC4536, read-out: MINIMAL INHIBITORY CONCENTRATION MIC, Human Serum): 2 µg/mL (≈ 3.11 µM)
MIC (S. aureus GC 4536; GC4536, read-out: MINIMAL INHIBITORY CONCENTRATION MIC, Mouse Serum): 2 µg/mL (≈ 3.11 µM)
MIC (S. aureus GC 4536; GC4536, read-out: MINIMAL INHIBITORY CONCENTRATION MIC, Water): 4 µg/mL (≈ 6.21 µM)
MIC (E. coli GC 2231; GC2231, read-out: MINIMAL INHIBITORY CONCENTRATION MIC, Human Serum): > 64 µg/mL
MIC (E. coli GC 2231; GC2231, read-out: MINIMAL INHIBITORY CONCENTRATION MIC, Mouse Serum): > 64 µg/mL
MIC (E. coli GC 2231; GC2231, read-out: MINIMAL INHIBITORY CONCENTRATION MIC, Water): > 64 µg/mL
MIC (E. coli GC 2234; GC2234, read-out: MINIMAL INHIBITORY CONCENTRATION MIC, Human Serum): > 64 µg/mL
MIC (E. coli GC 2234; GC2234, read-out: MINIMAL INHIBITORY CONCENTRATION MIC, Mouse Serum): > 64 µg/mL
MIC (E. coli GC 2234; GC2234, read-out: MINIMAL INHIBITORY CONCENTRATION MIC, Water): > 64 µg/mL
MIC (S. pneumoniae* GC 4465; [1]): 1 µg/mL (≈ 1.55 µM)
MIC (S. pneumoniae* GC 4465; [2]): 1 µg/mL (≈ 1.55 µM)
MIC (S. pneumoniae* GC 4465; [3]): 2 µg/mL (≈ 3.11 µM)
MIC (E. faecalis GC 2242; GC2242, read-out: MINIMAL INHIBITORY CONCENTRATION MIC, Human Serum): 4 µg/mL (≈ 6.21 µM)
MIC (E. faecalis GC 2242; GC2242, read-out: MINIMAL INHIBITORY CONCENTRATION MIC, Mouse Serum): 8 µg/mL (≈ 12.4 µM)
MIC (E. faecalis GC 2242; GC2242, read-out: MINIMAL INHIBITORY CONCENTRATION MIC, Water): 8 µg/mL (≈ 12.4 µM)
MIC (Staph.; MRSA, read-out: Range of MIC, Staph (Mouse Serum)): 2 to 8 µg/mL (≈ 3.11 to 12.4 µM)
MIC (Staph.; MRSA, read-out: Range of MIC, Staph (Water)): 4 to 16 µg/mL (≈ 6.21 to 24.9 µM)
MIC (Staph.; read-out: Minimum inhibitory concentration (MIC), Staph (Human Serum)): 2 to 8 µg/mL (≈ 3.11 to 12.4 µM)
MIC (Staph.; read-out: Minimum inhibitory concentration (MIC), Staph (Water)): 4 to 16 µg/mL (≈ 6.21 to 24.9 µM)
MIC (S. pyogenes GC 4563; GC4563, read-out: MINIMAL INHIBITORY CONCENTRATION MIC, Human Serum): 0.5 µg/mL (≈ 0.777 µM)
MIC (S. pyogenes GC 4563; GC4563, read-out: MINIMAL INHIBITORY CONCENTRATION MIC, Mouse Serum): 1 µg/mL (≈ 1.55 µM)
MIC (S. pyogenes GC 4563; GC4563, read-out: MINIMAL INHIBITORY CONCENTRATION MIC, Water): 2 µg/mL (≈ 3.11 µM)
MIC (S. typhimurium GC 2172; [1]): > 64 µg/mL
MIC (S. typhimurium GC 2172; [2]): > 64 µg/mL
MIC (S. typhimurium GC 2172; [3]): > 64 µg/mL
MIC (E. coli GC 4559; GC4559, read-out: MINIMAL INHIBITORY CONCENTRATION MIC, Human Serum): > 64 µg/mL
MIC (E. coli GC 4559; GC4559, read-out: MINIMAL INHIBITORY CONCENTRATION MIC, Mouse Serum): > 64 µg/mL
MIC (E. coli GC 4559; GC4559, read-out: MINIMAL INHIBITORY CONCENTRATION MIC, Water): > 64 µg/mL
MIC (E. coli GC 2232; GC2232, read-out: MINIMAL INHIBITORY CONCENTRATION MIC, Human Serum): > 64 µg/mL
MIC (E. coli GC 2232; GC2232, read-out: MINIMAL INHIBITORY CONCENTRATION MIC, Mouse Serum): > 64 µg/mL
MIC (E. coli GC 2232; GC2232, read-out: MINIMAL INHIBITORY CONCENTRATION MIC, Water): > 64 µg/mL
Structure (SMILES): COC(=O)N(CC(=O)Nc1cc(N(C)C)c2c(c1O)C(=O)C1=C(O)[C@]3(O)C(=O)C(C(N)=O)=C(O)[C@@H](N(C)C)[C@@H]3C[C@@H]1C2)C(C)(C)C [Example 60, methyl 2-{[(5aR,6aS,7S,10aS)-9-(aminocarbonyl)-4,7-bis(dimethylamino)-1,8,10a,11-tetrahydroxy-10,12-dioxo-5,5a,6,6a,7,10,10a,12-octahydrotetracen-2-yl]amino}-2-oxoethyl(tert-butyl)carbamate]
